Results as given in article PMC12040169 (PLOS Biology, 2025).

experiment: in vitro; conditions: human, hela cells, % viability

SMILES | viability at 28.5 h, 10 µM [%]
Cc1ccc(F)c(CN2CCN(CCO)[C@@H]3CS(=O)(=O)C[C@@H]32)c1 [CBK307699] | 93.6
O=C(c1c(F)cccc1F)N1CCC(O)(c2ccccn2)CC1 [CBK283670] | 105
NS(=O)(=O)c1ccc(-c2nc(-c3ccccc3)no2)cc1 [CBK269957] | 87.8
Cc1nnnn1-c1ccc(CC(=O)N2CCc3sccc3C2c2ccco2)cc1 (stereo not drawn) [CBK285705] | 88.2
CC(=O)Nc1ccc(SC(C)c2nsc(NS(=O)(=O)c3ccc(-c4ccccc4)cc3)n2)cc1 (stereo not drawn) [CBK047508] | 91.5
Cc1nc(NC(=O)Cn2nc(N3CCSCC3)ccc2=O)sc1C [CBK307622] | 98.3
CCC(CC)CNc1ncnc2ccc(S(C)(=O)=O)cc12 [CBK306495] | 90.9
NS(=O)(=O)c1cnc(Cl)c(Br)c1 [CBK034079] | 92.5
CC(=O)Nc1ccc(NC(=O)/C=C/c2ccc(Cl)cc2)cc1 [CBK264766] | 116
O=C(NCCN1CCOCC1)c1ccc(NS(=O)(=O)c2ccccc2)cc1 [CBK270118] | 102
OCCN1CC2(CCN(CCc3c[nH]c4ccccc34)CC2)c2ccccc21 [CBK144607T] | 94.2
O=C(O)C1CCN(C(=O)c2ccc3nsnc3c2)CC1 [CBK057344] | 99.8
O=C(Cc1ccc2c(c1)CCC2)N1CCCCC1CN1CCOCC1 (stereo not drawn) [CBK282704] | 88.8
OCCN1CCN(c2nc(NCC3CCCO3)c3ccccc3n2)CC1 (stereo not drawn) [CBK266659C] | 99.1
C=CCN1C(=O)CC2(C1=O)C(=O)N(Cc1nc(-c3ccc(Cl)cc3)no1)c1ccc(OC)cc12 (stereo not drawn) [CBK075692] | 97.1
CC(C)[C@H](CO)Nc1nccnc1-c1ccc(C(=O)N2CCOCC2)cc1 [CBK037012] | 97.7
CC(C)(CNC(=O)c1ccc(=O)n(CC(=O)NC2CCCCC2)c1)c1ccccc1F [CBK285983] | 90.7
NS(=O)(=O)c1ccc(S(=O)(=O)NCCc2c[nH]c3ccccc23)cc1 [CBK266691] | 82.2
c1ccc(N2CCOCC2)c(COc2cncc(N3CCNCC3)n2)c1 [CBK172351G] | 105
Cc1ccc(S(N)(=O)=O)cc1NC(=O)c1ccc(S(=O)(=O)N(C)C)cc1 [CBK266050] | 103
COc1ccccc1-c1ccc2c(c1)COC1(CCN(C)CC1)O2 [CBK061024] | 82.2
COc1ccc(S(=O)(=O)N(C)CC(=O)Nc2cccc(F)c2)cc1Cl [CBK267882] | 90
CC(=O)N1CCN(c2ccc(NC(=O)C3C(C(=O)O)C3(C)C)cc2)CC1 (stereo not drawn) [CBK300545] | 88.6

SMILES | viability at 28.5 h, 10 µM [%]
COc1cc(NC(=S)NCCN2CCOCC2)c(OC)cc1Cl [CBK265888] | 101
CC(C)(Oc1cccc2ccccc12)C(=O)O [CBK012409] | 94.5
Cc1cccc(-c2csc3c(=O)[nH]c(N4CCC(C(=O)NCc5cccnc5)CC4)nc23)c1 [CBK215624] | 86.8
COC(=O)c1ccccc1S(=O)(=O)Nc1nnn[nH]1 [CBK021321] | 97.8
CCOc1ccc(S(=O)(=O)N2CCCN(CC(C)C)CC2)c2cccnc12 [CBK062758] | 97
Cc1ccccc1OCCn1c(CCCO)nc2ccccc21 [CBK266182] | 115
Cc1ccc(-c2n[nH]c(=S)n2CC(=O)N2CCC(C(=O)Nc3ccc4c(c3)OCO4)CC2)cc1 [CBK297887] | 82
CC1CCc2c(sc3ncnc(OCC(=O)N(C)CCC#N)c23)C1 (stereo not drawn) [CBK304976] | 89.8
CC(C)(C)c1ccc(-c2cnc(N)c3ncccc23)cc1 [CBK067589] | 99.2
O=C(NC(=O)N1CCOCC1)c1csnn1 [CBK005561] | 86.4
c1ccc2[nH]c(CN3CCC[C@@H]3CN3CCCC3)nc2c1 [CBK149102] | 85.9
Cc1cc(COc2nccnc2OC2CCN(Cc3ccc(Cl)cc3)CC2)no1 [CBK082949T] | 85.7
Fc1ccc(N2CCN(c3ncnc4[nH]cnc34)CC2)cc1 [CBK287387] | 89.8
COc1ccc(C(=O)OC(C)(C)C)c(-c2cncc(NCc3ccco3)n2)c1 [CBK037751] | 87.8
CCN(CC)C(=O)C1CCCN(C(=O)NCc2ccc(C#N)cc2)C1 (stereo not drawn) [CBK156132] | 102
CC(C)(C)OC(=O)N1CCC(CNS(=O)(=O)c2cccs2)CC1 [CBK086019] | 100
CNCCc1n[nH]c(N)n1 [CBK020959] | 89.4
CC1=NN(c2ccccc2)C(=O)/C1=C1/C(=O)Nc2c(C)cc(Br)cc21 [CBK263950] | 92
Cc1nn(CC(=O)NCc2ccc(C(=O)O)cc2)c(C)c1[N+](=O)[O-] [CBK268967] | 118
CCN(C(=O)c1cc(C)nc2ccccc12)C1CCN(C)CC1 [CBK281920] | 106
Clc1cncc(OCCCCOc2ccccc2)n1 [CBK176018] | 108
Cn1c(Cc2csc(NC(=O)c3ccc(Cl)cc3F)n2)n[nH]c1=S [CBK296635] | 94.7
Nc1ncc2ncn([C@@H]3O[C@H](CO)[C@H](O)C3O)c2n1 (stereo partly drawn) [CBK201318] | 92.8

SMILES | viability at 28.5 h, 10 µM [%]
O=C(NC1CCCCC1)N1Cc2nc[nH]c2C[C@H]1c1nc(-c2ccc3c(c2)OCO3)no1 [CBK289000] | 95.7
O=C(c1ccccc1F)N1C[C@H](c2ccsc2)[C@H]2CN(Cc3cccs3)CC[C@H]21 [CBK285657] | 94.8
COc1ccccc1N1CCN(C(=O)CCCC(=O)O)CC1 [CBK286904] | 80.8
Cc1ccccc1C1NC(=O)NC2=C1C(=O)N(C)C2 (stereo not drawn) [CBK288026] | 96.8
Fc1ccc(N(CCCN2CCN(c3ncccn3)CC2)c2ccc(F)cc2)cc1 [CBK025127C] | 98.8
Cc1cc(C)n(-c2nc3ccccc3nc2N2CCN(S(=O)(=O)c3ccccc3)CC2)n1 [CBK269399] | 79.9
CCc1csc(CCNc2ccc(-c3nc(C4CC4)no3)cn2)n1 [CBK306608] | 91.3
CCOC(=O)Cn1c(-c2ccc(OC)cc2)cc2cccnc21 [CBK283320] | 84.2
O=C1CC(C(=O)c2ccccc2)NC(N2CCOCC2)=N1 (stereo not drawn) [CBK267352] | 105
CCCC(=O)CCOC(=O)C1=C(C)OC2C1Nc1cc(F)c(F)cc1N2CC (stereo not drawn) [CBK022099] | 93.4
CNc1nc(C(C)(C)C)cs1 [CBK025373] | 88.2
CC(=O)c1ccccc1NC(C#N)c1ccccc1 (stereo not drawn) [CBK057758] | 99.6
CC(C)S(=O)(=O)CC(=O)Nc1ccc(C(=O)O)cc1 [CBK020001] | 96.6
Cc1c(C(=O)O)c2cc(O)ccc2n1-c1ccccc1 [CBK115329] | 103
Nc1ncnc2c1nc(OCc1ccccc1)n2C1CC(O)C(CO)O1 (stereo not drawn) [CBK201164] | 94.9
Cc1ccc(-c2c(N3C(=O)c4cccnc4C3=O)n[nH]c2C)cc1 [CBK288199] | 101
O=c1c(-c2nc3ccccc3s2)coc2c(CN3CCCCC3)c(O)ccc12 [CBK262161] | 106
OC(CCNC1CCCCC1)(c1ccccc1)c1ccccc1 [CBK013339] | 101
c1cncc(-c2nccnc2NCC2CC2)c1 [CBK037310] | 80.9
COc1ccccc1C(=O)N1CCN(C(=O)CN2CCCC2)CC1 [CBK024836] | 88.1
O=C1NC2=NOCCC2=CN1[C@H]1C[C@@H](O)[C@@H](CO)O1 [CBK201192] | 96.8
N=c1c2c3c(sc2ncn1CCCn1ccnc1)CCCC3 [CBK264211] | 95.5
Cc1cc(C)n(C2CCN(Cc3cnn(C4CCCCC4)c3)CC2)n1 [CBK281804] | 89.2

SMILES | viability at 28.5 h, 10 µM [%]
COc1cccc(C2(NC(=O)c3cnsc3)CCCC2)c1 [CBK283611] | 94.9
CC(=O)Nc1ccccc1NC(=O)c1ccccc1CCc1ccccc1 [CBK268621] | 97.1
CNS(=O)(=O)c1ccc(NC(=O)Nc2ccc([N+](=O)[O-])cc2OC)cc1 [CBK266939] | 93.1
CCC(CO)NCc1ccc(OCC(N)=O)cc1 (stereo not drawn) [CBK304670] | 100
Cc1cccc(-n2c(C3CCCNC3=O)n[nH]c2=S)c1 (stereo not drawn) [CBK012842] | 89
CC(C(=O)N1CCC(c2cc3cccnc3[nH]2)CC1)N1CCCC1=O (stereo not drawn) [CBK282705] | 105
CC(C)NC(=O)CN1CCC(Oc2nccnc2OCc2ccc(Cl)c(Cl)c2)CC1 [CBK153791] | 92.2
CC(C)CC(Nc1ncnc2c1oc1ccccc12)C(=O)O (stereo not drawn) [CBK293974] | 100
COc1ncc(-c2cn3ccnc3c(N3CCN(CCO)CC3)n2)c(OC)n1 [CBK037869] | 107
COC(=O)c1cc(-c2ccccc2)sc1NC(=O)CSc1ncnc2sc3c(c12)CCC3 [CBK265978] | 97.4
CC1(C)CC2CC(C)(CN2Cc2c(O)ccc3cc(-c4nc(-c5ccc(Br)cc5)cs4)c(=O)oc23)C1 (stereo not drawn) [CBK263831] | 103
COc1ccc(C(C)NC(=O)c2cc(-c3ccc(F)cc3)[nH]n2)cc1 (stereo not drawn) [CBK288060] | 87
Cn1ccnc1C1(O)CCN(C(=O)NC2CCCCC2)CC1 [CBK282275] | 91.8
CCOC(=O)c1cnc(SCc2nc(N)nc(Nc3ccc(C)cc3)n2)nc1N [CBK266292] | 115
CCCOCCCn1ccc2nc(OC)c(C#N)cc2c1=O [CBK307162] | 88
O=C1N[C@@H]2CCN(C(=O)COc3cccnc3)C[C@@H]2CCCCCOc2ccccc21 [CBK292037] | 94.6
OC1(c2ccccc2)CCNCC1 [CBK012290] | 101
O=C(O)Cc1csc(SCc2cc(F)cc3c2OC(c2ccccc2)OC3)n1 (stereo not drawn) [CBK295158] | 107
NC(=O)NC(CC(=O)N1CCc2sccc2C1)c1cccc(Br)c1 (stereo not drawn) [CBK305813] | 95
COc1ccccc1NC(=O)C(=O)NCc1cccnc1 [CBK287724] | 97.5
c1coc(-c2nccnc2NCc2ccncc2)c1 [CBK038059] | 105
